# Patent US6534524B1, “Indazole compounds and pharmaceutical compositions for inhibiting protein kinases, and methods for their use” (Agouron Pharmaceuticals, Inc., priority 1999, dated 2003)
# Where two headings read alike, the source gives them in different places.
# What was measured:
# [1] = Human liver microsome (HLM) assay; assay type: in vitro ADME; conditions: human liver microsomes, 5 μM test compound
# How it was run: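 LC-MS quantified test compound remaining after 0 and 2 h incubation with human liver microsomes. Triplicate samples, clarified by 10 min centrifugation at 14000 g.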
# [2] = Determination of inhibitor concentration in mouse plasma after intraperitoneal and oral dosing; assay type: in vivo
# How it was run: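 Plasma levels quantified by HPLC or LC-MS using a standard curve prepared in mouse plasma, following ethyl acetate extraction with internal standard and sodium hydroxide. Sampling at 0.5, 1, 4 h (ocular bleed) and 7 h (cardiac puncture) after oral or intraperitoneal dosing.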
# [3] = target: human FGF-R1 (Homo sapiens, UniProt P11362, C488A/C584S/L457V); test: FGF-R spectrophotometric assay
# [4] = tested on: retinal vasculature (VEGF dependent); test: In vivo assay of retinal vascular development in neonatal rats; conditions: P8 model; intravitreal; 5 mg/ml; vehicle PEG/water 50:50
# [5] = target: unphosphorylated VEGF-R2Δ50 (FLVK) (Homo sapiens, UniProt P35968, DEL940-989/E990V); test: VEGF-R2 coupled spectrophotometric assay, unphosphorylated VEGF-R2Δ50 (FLVK); conditions: for Ki: FLVK Ki, Table 1; for inhibition at 0.05 µM: read-out: FLVK % inhibition
# [6] = tested on: human umbilical vein endothelial cells (HUVEC); test: HUVEC proliferation assay (VEGF-stimulated, MTT); assay type: cell-based; conditions: Homo sapiens, HUVEC
# [7] = tested on: VEGF dependent retinal neovascularization; test: In vivo assay of retinal vascular development in neonatal rat model of retinopathy of prematurity; conditions: ROP model, intravitreal, vehicle PEG/water 70:30; for % inhibition: 1 mg/ml; for Initial Evaluation: 10 mg/ml
# Experimental: In Vivo Assay of Retinal Vascular Development in Neonatal Rat Model of Retinopathy of Prematurity A second model of VEGF dependent retinal neovascularization was employed to evaluate the activities of this series of compounds. […] This alternating cycle of hyperoxia followed by hypoxia is repeated 7 times after which the animals are removed to room air (P14). Compounds are administered via intravitreal injection upon removal to room air and the animals are sacrificed 6 days later (P20). The isolated retinas are then isolated, stained mounted and analyzed as detail above in the development model. The effectiveness was also graded as is described for the development model.
# [8] = tested on: lung cancer cells (line MV522); test: Cancer cell proliferation (MV522) assay; assay type: cell-based
# Experimental: Cancer Cell Proliferation (MV522) Assay
# The protocol for assessing cellular proliferation in cancer cells is similar to that used for assessments in HUVEC cells. Two thousand lung cancer cells (line MV522, acquired from American Tissue Cultural Collection) were seeded in growth media (RPMI1640 medium supplemented with 2 mM glutamine and 10% FBS). Cells are allowed to attach for 1 day prior to addition of test agents and/or vehicles. Cells are treated simultaneously with the same test agents used in the HUVEC assay. Cellular proliferation is quantified by MTT dye reduction assay 72 hours after exposure to test agents. The total length of the assay is 4 days vs. 5 for HUVEC cells because MV522 cells are not exposed to starvation medium.
# [9] = target: T1, LCK tyrosine kinase (Homo sapiens, UniProt P06239, C224D/P223M); test: LCK spectrophotometric assay; assay type: biochemical; conditions: Table 1; compound concentration 1 μM; read-out: Lck-P % inhibition
# T1 construct: starting from amino acid residue 223 to the end of the protein at residue 509; made in house; host or cells: insect cells
# Experimental: The production of ADP from ATP that accompanies phosphoryl transfer was coupled to oxidation of NADH using phosphoenolpyruvate (PEP) and a system having pyruvate kinase (PK) and lactic dehydrogenase (LDH). The oxidation of NADH was monitored by following the decrease of absorbance at 340 nm (e340=6.22 cm^−1 mM^−1) using a Beckman DU 650 spectrophotometer. […] Ki values were determined by measuring enzyme activity in the presence of varying concentrations of test compounds. The data were analyzed using Enzyme Kinetic and Kaleidagraph software.
# The spectrophotometric assay was carried out as described above for VEGF-R2, except for the following changes in concentration: LCK=60 nM, MgCl2=0 mM, poly(E4Y1)=20 mM.
# [10] = IP, 25 mg/kg, vehicle PEG400:H2O pH 2.3 30:70
# [11] = PO, 10 mg/kg, vehicle PEG400:H2O pH 2.3 30:70
# [12] = PO, 25 mg/kg, vehicle PEG400:H2O pH 2.3 30:70
# [13] = PO, 50 mg/kg, vehicle PEG400:H2O pH 2.3 30:70
# [14] = female, IP, 25 mg/kg, vehicle PEG400:H2O pH 2.3 30:70, read-out: Cmin (7 hr conc.)
# [15] = female, PO, 25 mg/kg, vehicle PEG400:H2O pH 2.3 30:70, read-out: Cmin (7 hr conc.)
# [16] = female, PO, 50 mg/kg, vehicle PEG400:H2O pH 2.3 30:70, read-out: Cmin (7 hr conc.)
# [17] = + albumin, read-out: HUVEC + albumin IC50
# [18] = IP, 25 mg/kg, vehicle PEG400:H2O pH 2.3 60:40
# [19] = PO, 50 mg/kg, vehicle PEG400:H2O pH 2.3 60:40
# [20] = female, IP, 25 mg/kg, vehicle PEG400:H2O pH 2.3 60:40, read-out: Cmin (7 hr conc.)
# [21] = female, PO, 50 mg/kg, vehicle PEG400:H2O pH 2.3 60:40, read-out: Cmin (7 hr conc.)
# unphosphorylated VEGF-R2Δ50 (FLVK), sequence (P35968 with tags, fused parts or gaps DEL940-989/E990V limits assumed): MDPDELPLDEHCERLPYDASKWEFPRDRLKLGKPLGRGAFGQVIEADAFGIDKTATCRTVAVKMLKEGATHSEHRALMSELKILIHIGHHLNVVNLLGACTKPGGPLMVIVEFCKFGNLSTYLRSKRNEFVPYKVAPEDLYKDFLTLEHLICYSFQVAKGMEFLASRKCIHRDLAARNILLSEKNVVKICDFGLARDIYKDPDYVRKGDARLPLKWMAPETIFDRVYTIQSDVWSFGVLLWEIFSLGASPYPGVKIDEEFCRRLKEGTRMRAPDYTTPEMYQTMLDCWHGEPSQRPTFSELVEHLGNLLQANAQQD
# human FGF-R1, sequence (P11362 456-766 L457V/C488A/C584S): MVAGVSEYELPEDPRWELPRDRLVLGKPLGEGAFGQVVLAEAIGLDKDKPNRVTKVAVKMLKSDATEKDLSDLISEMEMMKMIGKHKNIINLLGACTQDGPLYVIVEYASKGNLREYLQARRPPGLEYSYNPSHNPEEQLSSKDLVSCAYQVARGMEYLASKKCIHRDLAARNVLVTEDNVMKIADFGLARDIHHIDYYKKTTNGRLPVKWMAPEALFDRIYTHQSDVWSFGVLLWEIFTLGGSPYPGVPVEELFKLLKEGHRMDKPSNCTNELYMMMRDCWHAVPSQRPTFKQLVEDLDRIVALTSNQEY
# T1 sequence (P06239 223-509 P223M/C224D): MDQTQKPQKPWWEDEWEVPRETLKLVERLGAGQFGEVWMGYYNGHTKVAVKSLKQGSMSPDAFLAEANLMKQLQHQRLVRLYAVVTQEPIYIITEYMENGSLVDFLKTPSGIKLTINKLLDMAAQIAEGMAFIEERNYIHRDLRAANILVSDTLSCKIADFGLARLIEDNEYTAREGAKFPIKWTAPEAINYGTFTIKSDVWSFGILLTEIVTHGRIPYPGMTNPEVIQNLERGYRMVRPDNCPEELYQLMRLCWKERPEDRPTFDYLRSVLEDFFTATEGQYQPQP
compound,measurement,setting,value
"CCn1nc(C)cc1C(=O)Nc1cccc(Oc2ccc3c(/C=C/c4ccccn4)n[nH]c3c2)c1 [Example 31(d), 6-[3-((1-Ethyl-3-methyl-1H-pyrazol-5-yl)carboxamido)phenoxy]-3-E-[2-(pyridin-2-yl)ethenyl]-1H-indazole]","% remain (HLM, 2 h)",[1],110%
same,AUClast,[2]; [10],237.784 µg·h/mL
same,Cmax,[2]; [10],64.184 µg/mL
same,plasma half-life (T1/2),[2]; [10],5.3 h
same,AUClast,[2]; [11],49.12 µg·h/mL
same,Cmax,[2]; [11],9.74 µg/mL
same,plasma half-life (T1/2),[2]; [11],3.1 h
same,AUClast,[2]; [12],203.86 µg·h/mL
same,Cmax,[2]; [12],50.81 µg/mL
same,plasma half-life (T1/2),[2]; [12],1.9 h
same,AUClast,[2]; [13],430.683 µg·h/mL
same,Cmax,[2]; [13],76.915 µg/mL
same,plasma half-life (T1/2),[2]; [13],39.3 h
same,concentration at 7 h,[2]; [14],15.1 µg/mL
same,concentration at 7 hr,"[2]; female, PO, 10 mg/kg, vehicle PEG400:H2O pH 2.3 30:70, read-out: Cmin (7 hr conc.)",2.02 µg/mL
same,concentration at 7 h,[2]; [15],3.8 µg/mL
same,concentration at 7 h,[2]; [16],42.5 µg/mL
same,Ki,[3],14 nM
same,% inhibition,[4],12%
"CCONC(=O)c1ccccc1Sc1ccc2c(/C=C/c3ccccn3)n[nH]c2c1 [Example 35(dd), 6-[2-(Ethoxycarbamoyl)phenylsulfanyl]-3-E-[2-(pyridin-2-yl)ethenyl]-1H-indazole]","% remain (HLM, 2 h)",[1],26%
same,Ki,[3],75 nM
same,Initial Evaluation,[4],++/+++ var
same,Ki,[5],0.6 nM
"C=CCONC(=O)c1ccccc1Sc1ccc2c(/C=C/c3ccccn3)n[nH]c2c1 [Example 35(j), 6-[2-(Allyloxycarbamoyl)phenylsulfanyl]-3-E-[2-(pyridin-2-yl)ethenyl]-1H-indazole]",IC50,[6]; [17],1.5 nM
same,"% remain (HLM, 2 h)",[1],5%
same,AUClast,[2]; [10],9.531 µg·h/mL
same,plasma half-life (T1/2),[2]; [10],1.3 h
same,AUClast,[2]; [13],1.328 µg·h/mL
same,plasma half-life (T1/2),[2]; [13],4.5 h
same,concentration at 7 h,[2]; [14],0.052 µg/mL
same,concentration at 7 h,[2]; [16],0.005 µg/mL
same,% inhibition,[4],7%
same,inhibition at 0.05 µM,[5],99%
"C/C=C/C(=O)Nc1cccc(C(=O)c2ccc3c(/C=C/c4ccccn4)n[nH]c3c2)c1 [Example 41(c), 6-(3-Crotonylamidobenzoyl)-3-E-[2-(pyridin-2-yl)ethenyl]-1H-indazole]","% remain (HLM, 2 h)",[1],68%
same,AUClast,[2]; [18],3.397 µg·h/mL
same,plasma half-life (T1/2),[2]; [18],1.7 h
same,AUClast,[2]; [19],3.182 µg·h/mL
same,plasma half-life (T1/2),[2]; [19],2.6 h
same,concentration at 7 h,[2]; [20],0.057 µg/mL
same,concentration at 7 h,[2]; [21],0.104 µg/mL
same,% inhibition,[7],16%
same,Initial Evaluation,[7],+++ (three pluses give to retinas with near total regression (approximately 75% or greater))
same,Initial Evaluation,[4],++ (two pluses being judged to be approximately 25-75% regression)
same,Ki,[5],0.22 nM
"O=C(c1cccc(NC(=O)c2cccc3[nH]ccc23)c1)c1ccc2c(/C=C/c3ccccn3)n[nH]c2c1 [Example 41(d), 6-[3-(Indol-4-ylcarboxamido)benzoyl]-3-E-[2-(pyridin-2-yl)ethenyl]-1H-indazole]",AUClast,[2]; [18],10.324 µg·h/mL
same,plasma half-life (T1/2),[2]; [18],2.8 h
same,AUClast,[2]; [19],7.072 µg·h/mL
same,plasma half-life (T1/2),[2]; [19],1.5 h
same,concentration at 7 h,[2]; [20],0.573 µg/mL
same,concentration at 7 h,[2]; [21],0.15 µg/mL
same,% inhibition,[7],0%
same,Ki,[5],0.093 nM
"O=C(c1cccc(NC(=O)c2cccc3[nH]ccc23)c1)c1ccc2c(/C=N/n3cccc3)n[nH]c2c1 [Example 45(a), 6-[3-(Indol-4-ylcarboxamido)benzoyl]-3-E-[N-(pyrrol-1-yl)iminomethyl]-1H-indazole]",IC50,[6]; [17],~15 nM
same,IC50,[6]; read-out: HUVEC IC50,3.1 nM
same,IC50,[8],3500 nM
"O=C(Nc1cccc(C(=O)c2ccc3c(/C=N/n4cccc4)n[nH]c3c2)c1)c1ccccc1 [Example 45(b), 6-(3-Benzamidobenzoyl)-3-E-[N-(pyrrol-1-yl)iminomethyl]-1H-indazole]",inhibition at 1 µM,[9],86%
same,IC50,[8],4400 nM
same,AUClast,[2]; [18],11.361 µg·h/mL
same,plasma half-life (T1/2),[2]; [18],2.0 h
same,AUClast,[2]; [19],1.636 µg·h/mL
same,plasma half-life (T1/2),[2]; [19],3.0 h
same,Initial Evaluation,[7],++ (two pluses being judged to be approximately 25-75% regression)
same,inhibition at 1 µM,"[3]; read-out: FGF-P % inhibition, Table 1, compound concentration 1 μM",79%
same,inhibition at 0.05 µM,[5],99%
"Cc1cc(C(=O)Nc2cc(Nc3ccc4c(/C=C/c5ccccn5)n[nH]c4c3)ccc2F)n(C)n1 [Example 49(a), 6-[N-(3-((1,3-Dimethyl-1H-pyrazol-5-yl)carboxamido)-4-fluoro-phenyl)amino]-3-E-[2-(pyridin-2-yl)ethenyl]-1H-indazole]",inhibition at 1 µM,[9],11%
same,IC50,[6]; [17],~4 nM
same,IC50,[8],8400 nM
same,AUClast,[2]; [12],0.712 µg·h/mL
same,concentration at 7 h,[2]; [15],0.015 µg/mL
same,Ki,[3],79 nM
